The source of these data is patent publication US20220289685A1, “ANTIMALARIAL HEXAHYDROPYRIMIDINE ANALOGUES” (UCB BIOPHARMA SRL, priority 2019, published 2022).

Structures are written as SMILES. Where a name gives a salt, the structure may show the parent alone.

The experiment deals with Plasmodium falciparum 3D7 strain. In words: P. falciparum 3D7 asexual blood stage assay (SYBR green readout). To be noted: Plasmodium falciparum, 3D7, Erythrocyte, 72 h. The format is cell-based. The essentials: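 P. falciparum 3D7 in A+ erythrocytes (5% haematocrit, 0.5% parasitaemia) exposed 72 h at 37 °C under 1% O2/3% CO2 to 20-point 1.5-fold titrations, 50,000–15 nM in 0.5% DMSO. SYBR green lysis overnight, fluorescence 485/528 nm; normalized to mefloquine and DMSO, EC50 from biphasic two-site fit.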
One may read the IC50 as the concentration that inhibits the measured activity by half. The molecule `C[C@@H]1C[C@H](N2C(=N)N[C@](C)(c3cccc(NC(=O)c4cccc(C#N)c4)c3Cl)CC2=O)C[C@H](C)O1` (relative stereo) [Example 24, N-(2-Chloro-3-{(4S)-1-[(2S*,6R*)-2,6-dimethyltetrahydropyran-4-yl]-2-imino-4-methyl-6-oxohexahydro-pyrimidin-4-yl]phenyl)-3-cyano-benzamide hydrochloride] registered a half-inhibitory concentration (IC50) of 0.028 µM.

Molecule `C[C@@H]1C[C@H](N2C(=N)N[C@](C)(c3cccc(NC(=O)c4cc(C#N)ccc4Cl)c3Cl)CC2=O)CCO1` (relative stereo) [Example 98, 2-Chloro-N-(2-chloro-3-{(4S)-2-imino-4-methyl-1-[(2R*,4R*)-2-methyltetrahydropyran-4-yl]-6-oxo-hexahydropyrimidin-4-yl}phenyl)-5-cyanobenzamide hydrochloride] registered an IC50 of 0.045 µM.

Consider `C[C@@H]1C[C@H](N2C(=N)N[C@](C)(c3cccc(NC(=O)c4cccc(C#N)c4F)c3Cl)CC2=O)CCO1` (relative stereo) [Example 73, N-(2-Chloro-3-{(4S)-2-imino-4-methyl-1-[(2R*,4R*)-2-methyl-tetrahydropyran-4-yl]-6-oxo-hexahydropyrimidin-4-yl}phenyl)-3-cyano-2-fluorobenzamide hydrochloride], for which the IC50 turned out to be 0.006 µM.

With `C[C@@H]1C[C@H](N2C(=N)N[C@](C)(c3cccc(NC(=O)c4ncc(Cl)cn4)c3Cl)CC2=O)CCO1` (relative stereo) [Example 92, 5-Chloro-N-(2-chloro-3-{(4S)-2-imino-4-methyl-1-[(2R*,4R*)-2-methyltetrahydropyran-4-yl]-6-oxo-hexahydropyrimidin-4-yl]phenyl)-pyrimidine-2-carboxamide hydrochloride], 0.028 µM corresponded to half-maximal inhibition (IC50).

As to `COc1nccc(C(F)(F)F)c1C(=O)Nc1cccc([C@]2(C)CC(=O)N([C@@H]3CCO[C@H](C)C3)C(=N)N2)c1Cl` (relative stereo) [Example 114, N-(2-Chloro-3-{(4S)-2-imino-4-methyl-1-[(2R*,4R*)-2-methyl-tetrahydropyran-4-yl]-6-oxo-hexahydropyrimidin-4-yl]phenyl)-2-methoxy-4-(trifluoromethyl)-pyridine-3-carboxamide hydrochloride], 0.053 µM corresponded to half-maximal inhibition (IC50).

The molecule `C[C@@H]1C[C@H](N2C(=N)N[C@](C)(c3cccc(NC(=O)c4cc(C(F)(F)F)cnn4)c3Cl)CC2=O)CCO1` (relative stereo) [Example 55, N-(2-Chloro-3-{(4S)-2-imino-4-methyl-1-[(2R*,4R*)-2-methyl-tetrahydropyran-4-yl]-6-oxo-hexahydropyrimidin-4-yl}phenyl)-5-(trifluoromethyl)pyridazine-3-carboxamide hydrochloride] showed an IC50 of 0.053 µM.

Consider `C[C@@H]1C[C@H](N2C(=N)N[C@](C)(c3cccc(NC(=O)c4ccc(C(F)(F)F)nc4)c3Cl)CC2=O)CCO1` (relative stereo) [Example 21, N-(2-Chloro-3-{(4S)-2-imino-4-methyl-1-[(2R*,4R*)-2-methyl-tetrahydropyran-4-yl]-6-oxo-hexahydropyrimidin-4-yl}phenyl)-6-(trifluoromethyl)pyridine-3-carboxamide hydrochloride], for which inhibition was half-maximal at 0.231 µM (IC50).

Molecule `C[C@@H]1C[C@H](N2C(=N)N[C@](C)(c3cccc(NC(=O)c4ccnn4C)c3Cl)CC2=O)CCO1` (relative stereo) [Example 51, N-(2-Chloro-3-{(4S)-2-imino-4-methyl-1-[(2R*,4R*)-2-methyl-tetrahydropyran-4-yl]-6-oxo-hexahydropyrimidin-4-yl}phenyl)-2-methylpyrazole-3-carboxamide trifluoroacetic acid salt] yielded a 50% inhibitory concentration (IC50) of 0.059 µM.

As for `C[C@@H]1C[C@H](N2C(=N)N[C@](C)(c3cccc(NC(=O)c4ccc(F)c(F)c4)c3Cl)CC2=O)CCO1` (relative stereo) [Example 36, N-(2-Chloro-3-{(4S)-2-imino-4-methyl-1-[(2R*,4R*)-2-methyl-tetrahydropyran-4-yl]-6-oxo-hexahydropyrimidin-4-yl]phenyl)-3,4-difluorobenzamide trifluoroacetic acid salt], the IC50 is 0.033 µM.
